{"source": "paper PMC3026871", "about": "(Cancer chemotherapy and pharmacology, 2010)", "assay": "Plasma pharmacokinetics in patients", "details": "for concentration at 24 h / concentration at 6 h: Cmin; for concentration at 24 h: 24 hours after the daily dose; for concentration at 6 h: 6 hours after the second dose", "key": {"[1]": {"details": "human, plasma, oral, 5 mg, Mean (SD), QD-7D 5 mg, Day 7, steady state, n=4"}, "[2]": {"details": "human, plasma, oral, 10 mg, Mean (SD), QD-7D 10 mg, Day 7, steady state, n=4"}, "[3]": {"details": "human, plasma, oral, 20 mg, Mean (SD), QD-7D 20 mg, Day 7, steady state, n=3"}, "[4]": {"details": "human, plasma, oral, 25 mg, Mean (SD), QID-7D 25 mg, Day 7, Dose 2, steady state, n=6"}, "[5]": {"details": "human, plasma, oral, 30 mg, Mean (SD), QD-7D 30 mg, Day 7, steady state, n=6"}, "[6]": {"details": "human, plasma, oral, 35 mg, Mean (SD), QID-7D 35 mg, Day 7, Dose 2, steady state, n=3"}, "[7]": {"details": "human, plasma, oral, 40 mg, QD-7D 40 mg, Day 7, steady state, individual data, n=1"}, "[8]": {"details": "human, plasma, oral, 45 mg, Mean (SD), QID-7D 45 mg, Day 7, Dose 2, steady state, n=3"}, "[9]": {"details": "human, plasma, oral, 55 mg, Mean (SD), QID-7D 55 mg, Day 7, Dose 2, steady state, n=4"}, "[10]": {"details": "human, plasma, oral, 55 mg, Mean (SD), QID/M-7D 55 mg, Day 7, Dose 2, steady state, n=3"}, "[11]": {"details": "human, plasma, oral, 60 mg, Mean (SD), QID/M-7D 60 mg, Day 7, Dose 2, steady state, n=6"}, "[12]": {"details": "human, plasma, oral, 60 mg, Mean (SD), QID/M-14D 60 mg, Day 14, Dose 2, steady state, n=3"}, "[13]": {"details": "human, plasma, oral, 60 mg, QID/M-21D 60 mg, Day 21, Dose 2, steady state, individual data, n=1"}, "[14]": {"details": "human, plasma, oral, 70 mg, Mean (SD), QID/M-7D 70 mg, Day 7, Dose 2, steady state, n=3"}, "[15]": {"details": "human, plasma, oral, 80 mg, Mean (SD), QID/M-7D 80 mg, Day 7, Dose 2, steady state, n=3"}}, "data": [{"smiles": "O=C(O)c1ccc(Nc2ncc3c(n2)-c2ccc(Cl)cc2C(c2c(F)cccc2F)=NC3)cc1", "note": "[MLN8054]", "values": [{"measurement": "MLN8054 concentrations between the second and third doses", "setting": "QID/M-21D 60 mg, days 14 and 21, 1 patient", "value": "< 2000", "unit": "nM"}, {"measurement": "concentration at 7 day", "setting": "human, in vivo, 60 mg", "value": "~2000", "unit": "nM"}, {"measurement": "concentration at 14 day", "setting": "human, in vivo, 60 mg", "value": "> 2000", "unit": "nM"}, {"measurement": "AUC(0-t)", "setting": "human, plasma, oral, 5 mg, AUC0–24, Mean (SD), QD-7D 5 mg, Day 7, steady state, n=4", "value": 6.16, "unit": "µM·h"}, {"measurement": "Cmax", "setting": "[1]", "value": 521, "unit": "nM"}, {"measurement": "concentration at 24 h", "setting": "[1]", "value": 162, "unit": "nM"}, {"measurement": "Tmax", "setting": "human, plasma, oral, 5 mg, Tmax, Mean (SD), QD-7D 5 mg, Day 7, steady state, n=4", "value": 1.7, "unit": "h"}, {"measurement": "AUC(0-t)", "setting": "human, plasma, oral, 10 mg, AUC0–24, Mean (SD), QD-7D 10 mg, Day 7, steady state, n=4", "value": 7.53, "unit": "µM·h"}, {"measurement": "Cmax", "setting": "[2]", "value": 724, "unit": "nM"}, {"measurement": "concentration at 24 h", "setting": "[2]", "value": 154, "unit": "nM"}, {"measurement": "Tmax", "setting": "human, plasma, oral, 10 mg, Tmax, Mean (SD), QD-7D 10 mg, Day 7, steady state, n=4", "value": 3.8, "unit": "h"}, {"measurement": "AUC(0-t)", "setting": "human, plasma, oral, 20 mg, AUC0–24, Mean (SD), QD-7D 20 mg, Day 7, steady state, n=3", "value": 13.5, "unit": "µM·h"}, {"measurement": "Cmax", "setting": "[3]", "value": 1180, "unit": "nM"}, {"measurement": "concentration at 24 h", "setting": "[3]", "value": 240, "unit": "nM"}, {"measurement": "Tmax", "setting": "human, plasma, oral, 20 mg, Tmax, Mean (SD), QD-7D 20 mg, Day 7, steady state, n=3", "value": 3.3, "unit": "h"}, {"measurement": "AUC(0-t)", "setting": "human, plasma, oral, 25 mg, AUC0–24, Mean (SD), QID-7D 25 mg, Day 7, Dose 2, steady state, n=6", "value": 4.85, "unit": "µM·h"}, {"measurement": "Cmax", "setting": "[4]", "value": 1050, "unit": "nM"}, {"measurement": "concentration at 6 h", "setting": "[4]", "value": 720, "unit": "nM"}, {"measurement": "Tmax", "setting": "human, plasma, oral, 25 mg, Tmax, Mean (SD), QID-7D 25 mg, Day 7, Dose 2, steady state, n=6", "value": 2.5, "unit": "h"}, {"measurement": "AUC(0-t)", "setting": "human, plasma, oral, 30 mg, AUC0–24, Mean (SD), QD-7D 30 mg, Day 7, steady state, n=6", "value": 28.2, "unit": "µM·h"}, {"measurement": "Cmax", "setting": "[5]", "value": 2360, "unit": "nM"}, {"measurement": "concentration at 24 h", "setting": "[5]", "value": 912, "unit": "nM"}, {"measurement": "Tmax", "setting": "human, plasma, oral, 30 mg, Tmax, Mean (SD), QD-7D 30 mg, Day 7, steady state, n=6", "value": 3, "unit": "h"}, {"measurement": "AUC(0-t)", "setting": "human, plasma, oral, 35 mg, AUC0–24, Mean (SD), QID-7D 35 mg, Day 7, Dose 2, steady state, n=3", "value": 9.71, "unit": "µM·h"}, {"measurement": "Cmax", "setting": "[6]", "value": 1970, "unit": "nM"}, {"measurement": "concentration at 6 h", "setting": "[6]", "value": 1460, "unit": "nM"}, {"measurement": "Tmax", "setting": "human, plasma, oral, 35 mg, Tmax, Mean (SD), QID-7D 35 mg, Day 7, Dose 2, steady state, n=3", "value": 1.5, "unit": "h"}, {"measurement": "AUC(0-t)", "setting": "human, plasma, oral, 40 mg, AUC0–24, QD-7D 40 mg, Day 7, steady state, individual data, n=1", "value": 24.2, "unit": "µM·h"}, {"measurement": "Cmax", "setting": "[7]", "value": 3040, "unit": "nM"}, {"measurement": "concentration at 24 h", "setting": "[7]", "value": 461, "unit": "nM"}, {"measurement": "Tmax", "setting": "human, plasma, oral, 40 mg, Tmax, QD-7D 40 mg, Day 7, steady state, individual data, n=1", "value": 1, "unit": "h"}, {"measurement": "AUC(0-t)", "setting": "human, plasma, oral, 45 mg, AUC0–24, Mean (SD), QID-7D 45 mg, Day 7, Dose 2, steady state, n=3", "value": 7.55, "unit": "µM·h"}, {"measurement": "Cmax", "setting": "[8]", "value": 1530, "unit": "nM"}, {"measurement": "concentration at 6 h", "setting": "[8]", "value": 1140, "unit": "nM"}, {"measurement": "Tmax", "setting": "human, plasma, oral, 45 mg, Tmax, Mean (SD), QID-7D 45 mg, Day 7, Dose 2, steady state, n=3", "value": 0.8, "unit": "h"}, {"measurement": "AUC(0-t)", "setting": "human, plasma, oral, 55 mg, AUC0–24, Mean (SD), QID-7D 55 mg, Day 7, Dose 2, steady state, n=4", "value": 12.5, "unit": "µM·h"}, {"measurement": "AUC(0-t)", "setting": "human, plasma, oral, 55 mg, AUC0–24, Mean (SD), QID/M-7D 55 mg, Day 7, Dose 2, steady state, n=3", "value": 10.7, "unit": "µM·h"}, {"measurement": "Cmax", "setting": "[9]", "value": 2480, "unit": "nM"}, {"measurement": "Cmax", "setting": "[10]", "value": 2310, "unit": "nM"}, {"measurement": "concentration at 6 h", "setting": "[9]", "value": 1800, "unit": "nM"}, {"measurement": "concentration at 6 h", "setting": "[10]", "value": 1310, "unit": "nM"}, {"measurement": "Tmax", "setting": "human, plasma, oral, 55 mg, Tmax, Mean (SD), QID-7D 55 mg, Day 7, Dose 2, steady state, n=4", "value": 1.2, "unit": "h"}, {"measurement": "Tmax", "setting": "human, plasma, oral, 55 mg, Tmax, Mean (SD), QID/M-7D 55 mg, Day 7, Dose 2, steady state, n=3", "value": 1, "unit": "h"}, {"measurement": "AUC(0-t)", "setting": "human, plasma, oral, 60 mg, AUC0–24, Mean (SD), QID/M-7D 60 mg, Day 7, Dose 2, steady state, n=6", "value": 8.38, "unit": "µM·h"}, {"measurement": "AUC(0-t)", "setting": "human, plasma, oral, 60 mg, AUC0–24, Mean (SD), QID/M-14D 60 mg, Day 14, Dose 2, steady state, n=3", "value": 13.2, "unit": "µM·h"}, {"measurement": "AUC(0-t)", "setting": "human, plasma, oral, 60 mg, AUC0–24, QID/M-21D 60 mg, Day 21, Dose 2, steady state, individual data, n=1", "value": 7.03, "unit": "µM·h"}, {"measurement": "Cmax", "setting": "[11]", "value": 1950, "unit": "nM"}, {"measurement": "Cmax", "setting": "[12]", "value": 2640, "unit": "nM"}, {"measurement": "Cmax", "setting": "[13]", "value": 1500, "unit": "nM"}, {"measurement": "concentration at 6 h", "setting": "[11]", "value": 1090, "unit": "nM"}, {"measurement": "concentration at 6 h", "setting": "[12]", "value": 2070, "unit": "nM"}, {"measurement": "concentration at 6 h", "setting": "[13]", "value": 945, "unit": "nM"}, {"measurement": "Tmax", "setting": "human, plasma, oral, 60 mg, Tmax, Mean (SD), QID/M-7D 60 mg, Day 7, Dose 2, steady state, n=6", "value": 1.3, "unit": "h"}, {"measurement": "Tmax", "setting": "human, plasma, oral, 60 mg, Tmax, Mean (SD), QID/M-14D 60 mg, Day 14, Dose 2, steady state, n=3", "value": 2.3, "unit": "h"}, {"measurement": "Tmax", "setting": "human, plasma, oral, 60 mg, Tmax, QID/M-21D 60 mg, Day 21, Dose 2, steady state, individual data, n=1", "value": 1, "unit": "h"}, {"measurement": "AUC(0-t)", "setting": "human, plasma, oral, 70 mg, AUC0–24, Mean (SD), QID/M-7D 70 mg, Day 7, Dose 2, steady state, n=3", "value": 15.2, "unit": "µM·h"}, {"measurement": "Cmax", "setting": "[14]", "value": 3280, "unit": "nM"}, {"measurement": "concentration at 6 h", "setting": "[14]", "value": 1950, "unit": "nM"}, {"measurement": "Tmax", "setting": "human, plasma, oral, 70 mg, Tmax, Mean (SD), QID/M-7D 70 mg, Day 7, Dose 2, steady state, n=3", "value": 1.5, "unit": "h"}, {"measurement": "concentration at 7 days", "setting": "human, plasma, oral, 70 mg, mean plasma MLN8054 concentration maintained over the course of treatment, QID/M-7D 70 mg cohort", "value": 2000, "unit": "nM"}, {"measurement": "AUC(0-t)", "setting": "human, plasma, oral, 80 mg, AUC0–24, Mean (SD), QID/M-7D 80 mg, Day 7, Dose 2, steady state, n=3", "value": 10.1, "unit": "µM·h"}, {"measurement": "Cmax", "setting": "[15]", "value": 2130, "unit": "nM"}, {"measurement": "concentration at 6 h", "setting": "[15]", "value": 1670, "unit": "nM"}, {"measurement": "Tmax", "setting": "human, plasma, oral, 80 mg, Tmax, Mean (SD), QID/M-7D 80 mg, Day 7, Dose 2, steady state, n=3", "value": 1, "unit": "h"}, {"measurement": "half-life", "setting": "human, plasma, po", "value": "1800 to 2400", "unit": "min"}, {"measurement": "Tmax", "setting": "human, plasma, po, Tmax (range across cohorts), patients, across cohorts", "value": "1 to 4", "unit": "h"}, {"measurement": "patients with trough MLN8054 concentrations >2000 nM", "setting": "of the 48 patients with sufficient data to estimate pharmacokinetic parameters", "value": 7, "unit": "patients"}]}]}
